The target in test [1] is T1, rhodesain (Trypanosoma brucei rhodesiense, UniProt Q95PM0).
T1 construct: made in house
Nature of the test: Rhodesain fluorogenic enzyme assay (Cbz-Phe-Arg-AMC substrate). It is filed as biochemical, T. b. rhodesiense. The protocol: All molecules were tested towards rhodesain utilizing fluorogenic assays in the presence of Cbz-Phe-Arg-AMC as substrate. […] Firstly, all the molecules were preliminarily screened at 100 µM (Figure 1A), and DMSO and E-64 were employed as the negative and positive control, respectively. Since SPR10–SPR19 passed the initial screening (% of inhibition > 80%), they were properly diluted, in accordance with what is reported in the literature.
Rhodesain was recombinantly expressed as previously described and Cbz-Phe-Arg-AMC (10 µM) was used as the fluorogenic substrate. The rhodesain-mediated hydrolysis released the fluorescent portion AMC, and fluorescence was measured at room temperature over a period of 30 min, using an Infinite 200 PRO microplate reader, and excitation (380 nm) and emission ([…]) filters were employed. The assay buffer was composed of 50 mM sodium acetate, 5 mM EDTA, 200 mM NaCl, and 0.005% Brij 35 with a pH equal to 5.5. Similarly, the enzyme buffer contained the same chemicals as the assay, with the exception of Brij, which was replaced by 1,4-dithiothreitol (DTT). All the SPR derivatives were solubilized in DMSO, which was also used as the negative control. E-64 protease inhibitor [76] was employed as the positive control. […] Each independent assay was performed twice and in duplicate, using 96 well-plates in a total volume of […]. The first order inactivation rate constants (kobs) were determined by means of nonlinear regression analysis of the progress curves (fluorescence (F) vs. time), and the equation F = A (1 − exp(−kobst)) + B was used. The obtained kobs values were fitted vs. the concentrations of tested inhibitors, and the equation kobs = kinact [I]/(Kiapp + [I]) provided the Kiapp and kinact values. Ki values were obtained using the equation Ki = Kiapp/(1 + [S]/Km), where Km is equal to 0.9 µM [77]. Grafit software was used for the nonlinear regression analysis to calculate kinact and Ki. The second-order rate constants k2nd were directly determined as k2nd = kinact/Ki.

For test [2], the target named is T1, rhodesain. Further details: method as in PMID 31714776. The settings on record: lead compound; read-out: Rhodesain (TbrCatL) Ki; cited from earlier work.
In test [3] the target is human Cathepsin L (hCatL) (Homo sapiens, UniProt P07711). More on the design: method as in PMID 31714776. To be noted: unit printed in cell (PS1, Table 1); cited from earlier work.
human Cathepsin L (hCatL), sequence (P07711 114-333): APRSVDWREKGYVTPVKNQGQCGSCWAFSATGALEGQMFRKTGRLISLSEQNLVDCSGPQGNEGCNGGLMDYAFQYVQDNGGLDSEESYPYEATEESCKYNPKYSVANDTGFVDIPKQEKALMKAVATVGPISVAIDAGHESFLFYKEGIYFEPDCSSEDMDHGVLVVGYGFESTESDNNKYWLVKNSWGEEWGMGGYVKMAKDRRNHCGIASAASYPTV
Test [4] relates to T. b. brucei. To be noted: 24 h; cited from earlier work.

T1 sequence (Q95PM0 entry or part of it): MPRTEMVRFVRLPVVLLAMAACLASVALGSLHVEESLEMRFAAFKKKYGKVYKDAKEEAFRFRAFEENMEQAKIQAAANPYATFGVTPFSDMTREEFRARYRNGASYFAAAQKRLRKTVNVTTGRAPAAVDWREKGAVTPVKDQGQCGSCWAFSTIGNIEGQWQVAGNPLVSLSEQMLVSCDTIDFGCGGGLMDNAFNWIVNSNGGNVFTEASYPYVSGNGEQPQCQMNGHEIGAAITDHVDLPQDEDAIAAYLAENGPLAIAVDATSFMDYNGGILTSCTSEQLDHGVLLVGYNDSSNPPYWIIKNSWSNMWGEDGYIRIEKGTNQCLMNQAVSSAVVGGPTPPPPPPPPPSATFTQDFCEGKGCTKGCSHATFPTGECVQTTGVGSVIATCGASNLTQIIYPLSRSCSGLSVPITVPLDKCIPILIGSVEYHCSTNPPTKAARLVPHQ

The Ki is the dissociation constant of the complex between target and ligand, obtained from inhibition or displacement. One may read the EC50 as the concentration giving half of the maximal effect. For the compound `CC(=O)C=CC(CCc1ccccc1)NC(=O)C(Cc1ccccc1)NC(=O)c1ccc(F)cc1` (centres unmarked) [PS-1], the Rhodesain kinac in test [1] (Cbz-Phe-Arg-AMC 10 µM, pH 5.5, room temperature) was 0.00094 ± 0.00007 min⁻¹. Also, the “Rhodesain k2nd” value in test [1] (k2nd = kinact/Ki) is 1.397e+07 ± 1.777e+06 M⁻¹ s⁻¹. Further, the Ki in test [2] is 0.0011 nM; in test [3] it was 1.9 ± 0.4 nM. The concentration for a half-maximal effect (EC50) in test [4] is 5100 ± 1000 nM.
